# Target: T1, cannabinoid receptor 2 (CNR2) (Homo sapiens, UniProt P34972)
# T1 construct: host or cells: CHO-K1
# Experiment: CB2 receptor agonist assay (cAMP Hunter eXpress, CNR2 CHO-K1 cells)
# Assay type: cell-based
# Settings: agonist mode, Forskolin-stimulated cAMP, CNR2 CHO-K1 cells
# Procedure: The assays were performed in cAMP Hunter eXpress cells engineered to overexpress naturally Gi/Go-coupled wildtype cannabinoid receptor 1 (CNR1) or cannabinoid receptor 2 (CNR2) in CHO-K1 cell type. In these cells, CB1 and/or […] agonists inhibit production of intracellular cAMP in response to stimulation with Forskolin. cAMP levels are determined using luminogenic detection reagents provided with the Hunter eXpress cAMP detection kit.
# • Assay ready CNR1 CHO-K1 cells were obtained from Eurofins/Discover X, cat #95-0071E2 • Assay ready CNR2 CHO-K1 cells were obtained from Eurofins/Discover X, cat #95-0183E2 • Hunter eXpress cAMP detection kit was also from Discover X. The kit includes all cAMP detection reagents, Forskolin, complete cell plating medium and cell assay buffer.
# The Assay-Ready CNR1 CHO-K1 or CNR2 CHO-K1 cells were thawed and re-suspended in pre-warmed Assay Complete plating medium and inoculated into 96 well plate at a density of 30,000 cells in 100 μL. The plates with cells were incubated for 24 h at 37° C. in 5% CO2. […] The cells were stimulated with the Forskolin/compound buffer for 30 min. After stimulation, 15 μL of cAMP antibody reagent and 60 μL of cAMP working detection solution were added to the cells and, the cells were incubated for 1 h at room temperature. After 1 h incubation, 60 μL of cAMP Solution A was added to the wells and the plate was incubated for 3 h at room temperature. The plate was read on Biotek Synergy Neo2 reader in luminescent mode. CB1 and CB2 agonists should reduce cAMP production in response to Forskilin. Relative luminescence units (RLUs) were plotted against compound concentration to determine apparent EC50 values of the agonist compounds.
# T1 sequence (P34972 whole entry): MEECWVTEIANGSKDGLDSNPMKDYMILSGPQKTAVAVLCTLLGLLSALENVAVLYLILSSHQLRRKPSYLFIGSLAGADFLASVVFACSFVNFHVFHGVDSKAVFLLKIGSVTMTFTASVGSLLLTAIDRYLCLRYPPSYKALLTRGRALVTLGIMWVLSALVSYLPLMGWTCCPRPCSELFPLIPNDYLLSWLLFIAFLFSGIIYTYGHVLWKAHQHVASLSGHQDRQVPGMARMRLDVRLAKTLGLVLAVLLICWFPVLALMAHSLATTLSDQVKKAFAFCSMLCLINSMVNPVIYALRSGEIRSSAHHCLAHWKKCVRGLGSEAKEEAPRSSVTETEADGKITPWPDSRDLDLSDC
substance,measurement,value
Cannabigerol Quinone [Formula VI],IC50,120 nM

# — patent publication US20250073184A1, “CANNABIGEROQUINONE COMPOUNDS, COMPOSITIONS INCLUDING SUCH COMPOUNDS, AND USES OF SUCH COMPOUNDS AND COMPOSITIONS” (Juva Life, Inc., priority 2021, published 2025)
